In ChEMBL document CHEMBL1949526, “Cyclic hydroxyamidines as amide isosteres: discovery of oxadiazolines and oxadiazines as potent and highly efficacious γ-secretase modulators in vivo” (J Med Chem, 2012):

What was measured:
[1] = Cmax in rat at 10 mg/kg, po; type: ADME, organism-based; design: dose 10 mg/kg, route oral; settings: in vivo
[2] = biological target: Voltage-gated inwardly rectifying potassium channel KCNH2 (Homo sapiens, UniProt Q12809); test: Inhibition of human ERG by cell based voltage clamp assay
Chain of Voltage-gated inwardly rectifying potassium channel KCNH2 (Q12809 whole entry): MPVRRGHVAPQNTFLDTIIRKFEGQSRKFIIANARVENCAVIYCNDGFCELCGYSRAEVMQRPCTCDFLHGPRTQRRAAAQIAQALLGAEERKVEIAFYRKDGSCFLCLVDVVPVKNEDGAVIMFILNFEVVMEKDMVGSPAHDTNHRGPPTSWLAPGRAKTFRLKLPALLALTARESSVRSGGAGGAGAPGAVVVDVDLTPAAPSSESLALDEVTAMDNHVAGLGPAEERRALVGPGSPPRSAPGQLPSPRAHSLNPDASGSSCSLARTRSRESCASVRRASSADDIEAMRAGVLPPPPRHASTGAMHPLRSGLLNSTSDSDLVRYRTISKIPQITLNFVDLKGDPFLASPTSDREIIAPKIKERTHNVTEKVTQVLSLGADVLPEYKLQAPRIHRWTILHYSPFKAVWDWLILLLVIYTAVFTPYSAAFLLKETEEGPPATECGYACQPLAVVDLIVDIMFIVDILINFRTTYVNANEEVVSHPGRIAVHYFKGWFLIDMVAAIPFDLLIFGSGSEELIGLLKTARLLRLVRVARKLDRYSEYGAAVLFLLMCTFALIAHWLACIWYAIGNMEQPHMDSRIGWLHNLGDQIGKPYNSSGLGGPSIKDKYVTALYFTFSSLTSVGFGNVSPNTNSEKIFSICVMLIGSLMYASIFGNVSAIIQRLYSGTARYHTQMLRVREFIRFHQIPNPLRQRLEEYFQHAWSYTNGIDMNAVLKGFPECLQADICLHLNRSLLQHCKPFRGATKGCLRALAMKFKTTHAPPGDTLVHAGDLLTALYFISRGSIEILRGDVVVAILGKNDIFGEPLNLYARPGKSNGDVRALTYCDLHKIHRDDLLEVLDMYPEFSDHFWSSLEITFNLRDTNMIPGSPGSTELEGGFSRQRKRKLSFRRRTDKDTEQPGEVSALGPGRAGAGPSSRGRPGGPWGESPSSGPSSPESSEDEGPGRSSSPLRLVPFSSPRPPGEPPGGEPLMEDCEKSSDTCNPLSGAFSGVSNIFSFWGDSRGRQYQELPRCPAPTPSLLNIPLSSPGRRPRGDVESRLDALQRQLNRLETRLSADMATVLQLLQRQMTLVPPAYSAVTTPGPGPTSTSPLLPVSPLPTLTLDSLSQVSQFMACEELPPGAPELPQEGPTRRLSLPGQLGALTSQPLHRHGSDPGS

[3] = Half life in monkey at 3 mg/kg, iv; type: ADME, organism-based, Macaca mulatta; design: dose 3 mg/kg, route intravenous; settings: rhesus monkey, in vivo
Homo sapiens = species: Homo sapiens; test: Cardiotoxicity in human assessed as QT prolongation; type: toxicity, organism-based; settings: in vivo
Rattus norvegicus [4] = test: AUC in rat at 10 mg/kg, po; type: ADME, organism-based, Plasma; design: dose 10 mg/kg, route oral; settings: in vivo
[5] = Efflux ratio of permeability from basolateral to apical side over apical to basolateral side in human Caco2 cells; type: ADME, cell-based; settings: Caco-2
[6] = Volume of distribution at steady state in rat at 3 mg/kg, iv; type: ADME, organism-based; design: dose 3 mg/kg, route intravenous; settings: in vivo, read-out: Vdss
Gamma-secretase [7] = test: Modulation of gamma-secretase-mediated cleavage of human APP Swedish and London mutation expressed in HEK293 cells assessed as inhibition of amyloid beta42 production after 5 hrs by sandwich immunoassay; type: cell-based
[8] = Clearance in monkey at 3 mg/kg, iv; type: ADME, organism-based, Macaca mulatta; design: dose 3 mg/kg, route intravenous; settings: rhesus monkey, in vivo
[9] = biological target: T1, Nuclear receptor subfamily 1 group I member 2 (Homo sapiens, UniProt O75469); test: Induction of human PXR
T1 sequence (O75469 whole entry): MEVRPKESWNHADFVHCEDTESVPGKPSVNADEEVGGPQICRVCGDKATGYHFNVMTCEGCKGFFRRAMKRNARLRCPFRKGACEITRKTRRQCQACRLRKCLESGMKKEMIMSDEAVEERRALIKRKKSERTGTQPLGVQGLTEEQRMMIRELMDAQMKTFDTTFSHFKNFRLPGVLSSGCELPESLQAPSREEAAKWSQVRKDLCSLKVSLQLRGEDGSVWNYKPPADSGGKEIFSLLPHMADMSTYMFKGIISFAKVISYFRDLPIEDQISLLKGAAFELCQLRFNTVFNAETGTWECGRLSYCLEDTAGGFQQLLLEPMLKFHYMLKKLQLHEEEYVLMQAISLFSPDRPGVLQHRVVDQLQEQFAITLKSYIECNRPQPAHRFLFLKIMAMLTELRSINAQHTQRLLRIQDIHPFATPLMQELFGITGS

[10] = Cmax in monkey at 10 mg/kg, po; type: ADME, organism-based, Macaca mulatta; design: dose 10 mg/kg, route oral; settings: rhesus monkey, in vivo
[11] = Volume of distribution at steady state in monkey at 3 mg/kg, iv; type: ADME, organism-based, Macaca mulatta; design: dose 3 mg/kg, route intravenous; settings: rhesus monkey, in vivo, read-out: Vdss
Gamma-secretase [12] = test: Modulation of gamma-secretase-mediated cleavage of human APP Swedish and London mutation expressed in HEK293 cells assessed as reduction of total amyloid beta level after 5 hrs by sandwich immunoassay; type: cell-based
[13] = AUC in monkey at 10 mg/kg, po; type: ADME, organism-based, Macaca mulatta; design: dose 10 mg/kg, route oral; settings: rhesus monkey, plasma
[14] = Drug level in rat brain at 3 mg/kg, po after 3 hrs; type: ADME, organism-based; design: dose 3 mg/kg, route oral; settings: read-out: Drug uptake
[15] = Half life in rat at 3 mg/kg, iv; type: ADME, organism-based; design: dose 3 mg/kg, route intravenous; settings: in vivo
Cytochrome P450 2C9 = Cytochrome P450 2C9 (Homo sapiens, UniProt P11712); test: Inhibition of human CYP2C9; type: ADME
Chain of Cytochrome P450 2C9 (P11712 whole entry): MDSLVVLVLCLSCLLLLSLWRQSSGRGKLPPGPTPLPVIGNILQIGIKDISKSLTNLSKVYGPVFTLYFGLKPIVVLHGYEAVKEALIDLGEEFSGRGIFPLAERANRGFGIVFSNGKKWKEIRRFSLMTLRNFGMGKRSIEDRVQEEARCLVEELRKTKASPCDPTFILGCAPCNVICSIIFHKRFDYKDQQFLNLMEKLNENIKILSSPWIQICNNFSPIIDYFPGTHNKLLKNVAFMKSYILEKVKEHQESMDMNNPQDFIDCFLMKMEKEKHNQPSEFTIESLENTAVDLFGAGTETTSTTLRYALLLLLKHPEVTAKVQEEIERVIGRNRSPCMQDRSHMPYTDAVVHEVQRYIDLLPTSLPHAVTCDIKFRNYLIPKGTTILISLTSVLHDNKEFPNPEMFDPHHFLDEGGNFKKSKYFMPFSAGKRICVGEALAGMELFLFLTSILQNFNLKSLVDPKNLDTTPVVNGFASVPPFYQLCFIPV

[16] = Dissociation constant, pKa of the compound; type: physicochemical
[17] = Oral bioavailability in monkey at 10 mg/kg; type: ADME, organism-based, Macaca mulatta; settings: rhesus monkey, in vivo
Rattus norvegicus [18] = test: Antialzheimer activity in rat assessed as reduction in amyloid beta42 level in CSF at 3 mg/kg, po after 3 hrs; type: functional; design: scale not given: the % may be the effect or the level left
Rattus norvegicus [19] = test: Antialzheimer activity in rat assessed as reduction in amyloid beta42 level in CSF at 10 mg/kg, po after 3 hrs; type: functional; design: scale not given: the % may be the effect or the level left
Cytochrome P450 3A4 = Cytochrome P450 3A4 (Homo sapiens, UniProt P08684); test: Inhibition of human CYP3A4; type: ADME
Chain of Cytochrome P450 3A4 (P08684 whole entry): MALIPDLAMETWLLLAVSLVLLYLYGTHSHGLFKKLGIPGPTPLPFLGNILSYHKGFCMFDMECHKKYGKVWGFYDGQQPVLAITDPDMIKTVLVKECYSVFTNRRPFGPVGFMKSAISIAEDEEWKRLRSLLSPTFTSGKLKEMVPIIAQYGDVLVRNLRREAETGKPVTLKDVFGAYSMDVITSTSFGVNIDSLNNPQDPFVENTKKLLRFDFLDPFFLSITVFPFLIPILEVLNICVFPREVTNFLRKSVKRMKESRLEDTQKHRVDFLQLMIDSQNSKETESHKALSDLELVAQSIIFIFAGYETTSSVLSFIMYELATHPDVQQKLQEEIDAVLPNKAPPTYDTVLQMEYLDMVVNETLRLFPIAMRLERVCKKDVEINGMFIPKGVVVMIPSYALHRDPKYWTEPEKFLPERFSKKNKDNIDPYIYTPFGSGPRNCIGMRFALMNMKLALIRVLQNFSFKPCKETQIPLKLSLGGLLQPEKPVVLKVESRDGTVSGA

[20] = Drug level in rat brain at 10 mg/kg, po after 3 hrs; type: ADME, organism-based; design: dose 10 mg/kg, route oral; settings: read-out: Drug uptake
[21] = biological target: Gamma-secretase (Homo sapiens) (UniProt Q96BI3+Q9NZ42+Q8WW43+P49768+Q92542+P49810); test: Modulation of gamma-secretase-mediated cleavage of human APP Swedish and London mutation expressed in HEK293 cells assessed as reduction of total amyloid beta/amyloid beta42 ratio after 5 hrs by sandwich immunoassay; type: cell-based
[22] = Cmax in dog at 10 mg/kg, po; type: ADME, organism-based, Canis lupus familiaris; design: dose 10 mg/kg, route oral; settings: in vivo
[23] = Volume of distribution at steady state in dog at 3 mg/kg, iv; type: ADME, organism-based, Canis lupus familiaris; design: dose 3 mg/kg, route intravenous; settings: in vivo, read-out: Vdss
Cytochrome P450 2D6 = Cytochrome P450 2D6 (Homo sapiens, UniProt P10635); test: Inhibition of human CYP2D6; type: ADME
Chain of Cytochrome P450 2D6 (P10635 whole entry): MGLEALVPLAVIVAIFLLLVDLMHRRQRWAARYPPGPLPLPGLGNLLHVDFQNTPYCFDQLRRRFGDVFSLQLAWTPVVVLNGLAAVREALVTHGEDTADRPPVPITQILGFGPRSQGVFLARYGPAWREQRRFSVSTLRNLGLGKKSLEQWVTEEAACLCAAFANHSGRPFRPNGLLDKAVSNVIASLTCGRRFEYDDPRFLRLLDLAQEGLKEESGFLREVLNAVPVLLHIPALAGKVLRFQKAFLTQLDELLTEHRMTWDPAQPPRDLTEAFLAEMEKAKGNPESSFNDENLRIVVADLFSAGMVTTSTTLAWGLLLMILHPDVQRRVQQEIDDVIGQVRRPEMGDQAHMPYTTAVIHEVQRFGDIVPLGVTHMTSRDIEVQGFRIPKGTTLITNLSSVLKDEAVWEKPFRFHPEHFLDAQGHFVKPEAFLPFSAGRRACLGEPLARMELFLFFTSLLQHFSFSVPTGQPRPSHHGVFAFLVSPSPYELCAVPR

Canis familiaris [24] = test: Oral bioavailability in dog at 10 mg/kg; type: ADME, organism-based, Canis lupus familiaris; settings: in vivo
Rattus norvegicus [25] = test: Oral bioavailability in rat at 10 mg/kg; type: ADME, organism-based; settings: in vivo
Canis familiaris [26] = species: Canis familiaris; test: Cardiotoxicity in dog assessed as effect on electrocardiographic QTc interval at compound concentration required for pharmacological effect; type: toxicity, organism-based, Canis lupus familiaris; settings: in vivo
Gamma-secretase [27] = test: Modulation of gamma-secretase-mediated cleavage of human APP Swedish and London mutation expressed in HEK293 cells assessed as inhibition of amyloid beta40 production after 5 hrs by sandwich immunoassay; type: cell-based
Canis familiaris [28] = test: AUC in dog at 10 mg/kg, po; type: ADME, organism-based, Canis lupus familiaris, Plasma; design: dose 10 mg/kg, route oral; settings: in vivo
[29] = Permeability from apical to basolateral side of human Caco2 cells; type: ADME, cell-based; settings: Caco-2, read-out: permeability
[30] = Half life in dog at 3 mg/kg, iv; type: ADME, organism-based, Canis lupus familiaris; design: dose 3 mg/kg, route intravenous; settings: in vivo
Rattus norvegicus [31] = test: Antialzheimer activity in po dosed rat assessed as reduction in amyloid beta42 level in CSF after 3 hrs; type: functional, organism-based

COc1cc(/C=C2\CCCN3C2=NOC3(C)c2ccc(F)cc2)ccc1-n1cnc(C)c1 (single isomer, unassigned) gave a Cmax [1] of 4.9 µM, an IC50 [2] of 740 nM and a half-life [3] of 2 h. The Activity (Homo sapiens) was “Toxic”, the AUC (Rattus norvegicus [4]) was 19 µM·h and the efflux ratio [5] was 0.6. The Vd [6] was 1.6 L/kg, the IC50 (Gamma-secretase [7]) was 58 nM and the clearance [8] was 7.3 mL/min/kg. The Activity [9] was “Not Active”, the Cmax [10] was 5.6 µM and the Vd [11] was 1 L/kg. For the same compound, the IC50 (Gamma-secretase [12]) was 13700 nM, the AUC [13] was 30 µM·h and the concentration at 3 h [14] was 0.8 µM. For the same compound, the half-life [15] was 2.5 h, the “inhibition (INH)” value (Cytochrome P450 2C9) was “Not Active” and the pKa [16] was 6.7. The bioavailability [17] was 57%, the Activity (Rattus norvegicus [18]) was 30% and the Activity (Rattus norvegicus [19]) was 51%. For the same compound, the “inhibition (INH)” value (Cytochrome P450 3A4) was “Not Active”, the concentration at 3 h [20] was 5 µM and the Ratio IC50 [21] was 237. For the same compound, the Cmax [22] was 5.3 µM, the Vd [23] was 2.2 L/kg and the “inhibition (INH)” value (Cytochrome P450 2D6) was “Not Active”. For the same compound, the F (Canis familiaris [24]) was 69%, the F (Rattus norvegicus [25]) was 78% and the Activity (Canis familiaris [26]) was “Non-toxic”. For the same compound, the IC50 (Gamma-secretase [27]) was 267 nM, the AUC (Canis familiaris [28]) was 27 µM·h and the Papp A→B [29] was 34.6 ×10⁻⁶ cm/s. The half-life [30] was 1.7 h and the Activity (Rattus norvegicus [31]) was “Dose-dependent effect”.
